Experimental findings from ChEMBL document CHEMBL3217587, “The discovery of N-1 substituted 2-aminobenzimidazoles as zinc-dependent S. aureus biofilm inhibitors” (Medchemcomm, 2012) are described below.

Molecules are shown by their SMILES. Calls of active or inactive are those of the source.

Data set [1] concerns Staphylococcus aureus. The experiment in a line: Antimicrobial activity against methicillin-resistant Staphylococcus aureus ATCC 43300 assessed as inhibition of biofilm formation after 24 hrs by crystal violet staining-based microscopy. Type of data set: functional, organism-based. The following applies: ATCC 43300, 24 h.
Data set [2] concerns Staphylococcus aureus. The experiment in a line: Antimicrobial activity against methicillin-resistant Staphylococcus aureus ATCC 43300 assessed as inhibition of biofilm formation at 8 uM after 24 hrs by crystal violet staining-based microscopy in presence of Ca2+ ion. Type of data set: functional, organism-based.
In data set [3] the test system is Staphylococcus aureus. Kind of data set: Antimicrobial activity against methicillin-resistant Staphylococcus aureus ATCC BAA-44 assessed as inhibition of biofilm formation after 24 hrs by crystal violet staining-based microscopy. Type of data set: functional, organism-based. The note with it: ATCC BAA-44, 24 h.
For data set [4], the system named is Staphylococcus aureus. The experiment in a line: Toxicity in methicillin-resistant Staphylococcus aureus ATCC 43300 assessed as inhibition of planktonic cell growth at IC50 after 2 to 24 hrs by spectrophotometry. Type of data set: organism-based.
Data set [5] has as its system Staphylococcus aureus. The experiment in a line: Antimicrobial activity against methicillin-resistant Staphylococcus aureus ATCC 43300 assessed as inhibition of biofilm formation at 8 uM after 24 hrs by crystal violet staining-based microscopy in presence of Mn2+ ion. Type of data set: functional, organism-based.
Data set [6] relates to Staphylococcus aureus. Kind of data set: Antimicrobial activity against methicillin-resistant Staphylococcus aureus ATCC 43300 assessed as inhibition of biofilm formation at 8 uM after 24 hrs by crystal violet staining-based microscopy in presence of Mg2+ ion. Type of data set: functional, organism-based.
Data set [7] relates to Staphylococcus aureus. The experiment in a line: Antimicrobial activity against methicillin-resistant Staphylococcus aureus ATCC BAA-1685 after 16 hrs by broth microdilution method. The note with it: ATCC BAA-1685, 16 h. Type of data set: functional. On the technique in general: Dilution methods test growth across graded concentrations, often in twofold steps.
The test system of data set [8] is Staphylococcus aureus. Kind of data set: Toxicity in methicillin-resistant Staphylococcus aureus ATCC BAA-44 assessed as inhibition of planktonic cell growth at IC50 after 2 to 24 hrs by spectrophotometry. Type of data set: organism-based.
Data set [9] relates to Staphylococcus aureus. Kind of data set: Antimicrobial activity against methicillin-susceptible Staphylococcus aureus ATCC 29213 after 16 hrs by broth microdilution method. Type of data set: functional. The note with it: ATCC 29213, 16 h.
Data set [10] deals with Staphylococcus aureus. The experiment in a line: Antimicrobial activity against methicillin-resistant Staphylococcus aureus ATCC 33591 after 16 hrs by broth microdilution method. Type of data set: functional. The following applies: ATCC 33591, 16 h.
Another data set deals with Acinetobacter baumannii. Kind of data set: Antimicrobial activity against multidrug-resistant Acinetobacter baumannii ATCC BAA-1605 after 16 hrs by broth microdilution method. Type of data set: functional. The note with it: ATCC BAA-1605, 16 h.
For data set [11], the system named is Staphylococcus aureus. The experiment in a line: Antimicrobial activity against methicillin-resistant Staphylococcus aureus ATCC BAA-1556 after 16 hrs by broth microdilution method. Type of data set: functional. The following applies: ATCC BAA-1556, 16 h.
Data set [12] concerns Staphylococcus aureus. The experiment in a line: Antimicrobial activity against methicillin-resistant Staphylococcus aureus ATCC 700789 after 16 hrs by broth microdilution method. Type of data set: functional. The following applies: ATCC 700789, 16 h.
Data set [13] deals with Staphylococcus aureus. The experiment in a line: Antimicrobial activity against methicillin-resistant Staphylococcus aureus ATCC 43300 assessed as inhibition of biofilm formation at 8 uM after 24 hrs by crystal violet staining-based microscopy in presence of > 50 uM Zn2+ ion. Type of data set: functional, organism-based.
The next data set has as its system Pseudomonas aeruginosa. Kind of data set: Antimicrobial activity against Pseudomonas aeruginosa PA14 after 16 hrs by broth microdilution method. Type of data set: functional. The following applies: PA14, 16 h.
Data set [14] relates to Staphylococcus aureus. The experiment in a line: Antimicrobial activity against methicillin-resistant Staphylococcus aureus ATCC 43300 assessed as inhibition of biofilm formation at 8 uM after 24 hrs by crystal violet staining-based microscopy in presence of Cu2+ ion. Type of data set: functional, organism-based.
Data set [15] has as its system Staphylococcus aureus. The experiment in a line: Antimicrobial activity against methicillin-resistant Staphylococcus aureus ATCC BAA-1753 after 16 hrs by broth microdilution method. The following applies: ATCC BAA-1753, 16 h. Type of data set: functional.
Data set [16] relates to Staphylococcus aureus. Kind of data set: Antimicrobial activity against methicillin-resistant Staphylococcus aureus ATCC BAA-811 after 16 hrs by broth microdilution method. Type of data set: functional. The note with it: ATCC BAA-811, 16 h.
In data set [17] the test system is Staphylococcus aureus. Kind of data set: Antimicrobial activity against methicillin-resistant Staphylococcus aureus ATCC 43300 assessed as inhibition of biofilm formation at 8 uM after 24 hrs by crystal violet staining-based microscopy in presence of < 50 uM Zn2+ ion. Type of data set: functional.
In data set [18] the test system is Staphylococcus aureus. The experiment in a line: Antimicrobial activity against methicillin-resistant Staphylococcus aureus ATCC 43300 assessed as inhibition of biofilm formation at 8 uM after 24 hrs by crystal violet staining-based microscopy in presence of Fe2+ ion. Type of data set: functional, organism-based.
The subject of data set [19] is Staphylococcus aureus. The experiment in a line: Antimicrobial activity against methicillin-resistant Staphylococcus aureus ATCC BAA-44 after 16 hrs by broth microdilution method. Type of data set: functional. The following applies: ATCC BAA-44, 16 h.
For data set [20], the system named is Staphylococcus aureus. Kind of data set: Antimicrobial activity against methicillin-resistant Staphylococcus aureus ATCC 43300 after 16 hrs by broth microdilution method. Type of data set: functional. The following applies: ATCC 43300, 16 h.
Data set [21] deals with Staphylococcus aureus. Kind of data set: Antibiofilm activity against methicillin-resistant Staphylococcus aureus ATCC 43300 assessed as biofilm dispersal at 20 uM after 24 hrs by crystal violet staining-based microscopy. Type of data set: functional, organism-based.
The test system of data set [22] is Staphylococcus aureus. The experiment in a line: Antimicrobial activity against methicillin-resistant Staphylococcus aureus ATCC 43300 assessed as inhibition of biofilm formation at 8 uM after 24 hrs by crystal violet staining-based microscopy in presence of 200 uM Zn2+ ion. Type of data set: functional.

What is called IC50 is the point on the concentration scale where inhibition reaches its midpoint. The term MIC denotes the smallest concentration in the dilution series that meets the test's criterion for growth inhibition. Low readings indicate inhibition by little substance, high ones a need for much substance. On to `CCCCCc1ccc(C(=O)Nc2ccc3c(c2)nc(N)n3CCc2ccccc2)cc1.Cl`, for which the values for the IC50 with Staphylococcus aureus [1] and in the data set on Staphylococcus aureus [3] were 4.7 µM and 6 µM, respectively. In addition, the inhibition entry with Staphylococcus aureus [2], in the data set on Staphylococcus aureus [5], in the data set with Staphylococcus aureus [6], with Staphylococcus aureus [14] and with Staphylococcus aureus [18] was “Active” each time. Further, the Activity result in the data set with Staphylococcus aureus [4] and in the data set on Staphylococcus aureus [8] was “Non-toxic” in each case. The MIC is 8 µg/mL in the data set on Staphylococcus aureus [7]; 8 µg/mL in the data set with Staphylococcus aureus [9]; 8 µg/mL in the data set with Staphylococcus aureus [10]; > 64 µg/mL with Acinetobacter baumannii; 8 µg/mL with Staphylococcus aureus [11]; 16 µg/mL against Staphylococcus aureus [12]. The MIC in the data set on Pseudomonas aeruginosa was > 64 µg/mL; in the data set on Staphylococcus aureus [15], 8 µg/mL; with Staphylococcus aureus [16] it was 8 µg/mL; in the data set with Staphylococcus aureus [19] it was 16 µg/mL; against Staphylococcus aureus [20] it was 8 µg/mL. The inhibition entry in the data set with Staphylococcus aureus [13] was “inactive”. Further, the “inhibition (INH)” value in the data set with Staphylococcus aureus [17] amounted to 70%; with Staphylococcus aureus [22] it was 10%. For the same compound, in the data set on Staphylococcus aureus [21], the outcome was inactive.

Regarding `CCCCCCn1c(N)nc2cc(NC(=O)c3ccc(CCCCC)cc3)ccc21.Cl`, the IC50 in the data set with Staphylococcus aureus [1] amounted to 4.7 µM; in the data set with Staphylococcus aureus [3], 7.3 µM. Also, the inhibition entry in the data set on Staphylococcus aureus [2], in the data set with Staphylococcus aureus [5], in the data set with Staphylococcus aureus [6], with Staphylococcus aureus [14] and in the data set with Staphylococcus aureus [18] was “Active” each time. In addition, the Activity entry with Staphylococcus aureus [4] and in the data set with Staphylococcus aureus [8] was “Non-toxic” in each case. Further, the MIC was 16 µg/mL against Staphylococcus aureus [7]; 16 µg/mL in the data set on Staphylococcus aureus [9]; 16 µg/mL against Staphylococcus aureus [10]; > 64 µg/mL against Acinetobacter baumannii; 16 µg/mL in the data set on Staphylococcus aureus [11]; 32 µg/mL in the data set with Staphylococcus aureus [12]. Further, the MIC against Pseudomonas aeruginosa is > 64 µg/mL; with Staphylococcus aureus [15], 16 µg/mL; in the data set with Staphylococcus aureus [16], 16 µg/mL; against Staphylococcus aureus [19] it was 16 µg/mL; with Staphylococcus aureus [20], 16 µg/mL. Also, the inhibition entry in the data set with Staphylococcus aureus [13] and in the data set on Staphylococcus aureus [17] was “inactive” in each case. In addition, in the data set on Staphylococcus aureus [21], the result was inactive.

As for `CCCCCc1ccc(C(=O)Nc2ccc3c(c2)nc(N)n3CCc2ccc3ccccc3c2)cc1.Cl`, the concentration for half-maximal inhibition (IC50) turned out to be 5.7 µM in the data set on Staphylococcus aureus [1] and 14.3 µM in the data set with Staphylococcus aureus [3]. For the same compound, the Activity result with Staphylococcus aureus [4] and in the data set on Staphylococcus aureus [8] was “Toxic” in each case. Further, the MIC with Staphylococcus aureus [7] was 32 µg/mL; in the data set with Staphylococcus aureus [9], 64 µg/mL; with Staphylococcus aureus [10], 32 µg/mL; against Acinetobacter baumannii it was > 64 µg/mL; against Staphylococcus aureus [11], 32 µg/mL; against Staphylococcus aureus [12], 32 µg/mL. The minimal inhibitory concentration (MIC) in the data set with Pseudomonas aeruginosa is > 64 µg/mL; with Staphylococcus aureus [15] it was 64 µg/mL; in the data set on Staphylococcus aureus [16], 32 µg/mL; in the data set on Staphylococcus aureus [19], 32 µg/mL; with Staphylococcus aureus [20], 32 µg/mL. Further, in the data set with Staphylococcus aureus [21], the result was inactive.

Consider `CCCCCc1ccc(C(=O)Nc2ccc3c(c2)nc(N)n3CCCCc2c[nH]c3ccccc23)cc1.Cl`, for which the values for the IC50 in the data set on Staphylococcus aureus [1] and in the data set with Staphylococcus aureus [3] were 5.7 µM and 7.9 µM, respectively. Also, the Activity result with Staphylococcus aureus [4] and with Staphylococcus aureus [8] was “Toxic” throughout. Moreover, the minimum inhibitory concentration (MIC) against Staphylococcus aureus [7] is 32 µg/mL; against Staphylococcus aureus [9], 64 µg/mL; with Staphylococcus aureus [10], 32 µg/mL; against Acinetobacter baumannii, > 64 µg/mL; against Staphylococcus aureus [11], 32 µg/mL; against Staphylococcus aureus [12], 32 µg/mL. In addition, the MIC against Pseudomonas aeruginosa was > 64 µg/mL; against Staphylococcus aureus [15], 64 µg/mL; in the data set with Staphylococcus aureus [16], 64 µg/mL; with Staphylococcus aureus [19], 32 µg/mL; against Staphylococcus aureus [20], 32 µg/mL. Also, the result with Staphylococcus aureus [21] was inactive.

With `CCCCCCCCn1c(N)nc2cc(NC(=O)c3ccc(CCCCC)cc3)ccc21.Cl`, the results for the IC50 in the data set with Staphylococcus aureus [1] and with Staphylococcus aureus [3] were 9.3 µM and 6.8 µM, respectively. The Activity result in the data set on Staphylococcus aureus [4] and with Staphylococcus aureus [8] was “Non-toxic” in each case. In addition, the MIC in the data set with Staphylococcus aureus [7] is 64 µg/mL; in the data set with Staphylococcus aureus [9], 64 µg/mL; against Staphylococcus aureus [10], 64 µg/mL; against Acinetobacter baumannii, > 64 µg/mL; against Staphylococcus aureus [11], > 64 µg/mL; in the data set on Staphylococcus aureus [12] it was 64 µg/mL. For the same compound, the MIC with Pseudomonas aeruginosa was > 64 µg/mL; in the data set on Staphylococcus aureus [15], 64 µg/mL; in the data set on Staphylococcus aureus [16], 32 µg/mL; in the data set on Staphylococcus aureus [19] it was 64 µg/mL; in the data set with Staphylococcus aureus [20] it was 64 µg/mL. The result in the data set on Staphylococcus aureus [21] was inactive.
